What was measured:
[1] = molecular target: T1, guinea pig brain H3 receptor (Cavia porcellus, UniProt Q9JI35); assay: H3-receptor binding assay, guinea pig brain membranes; details: [3H]R-α-methyl histamine or [3H]Nα-methyl histamine
T1 construct: The brain tissue was homogenized with a solution of 50 mM Tris, pH 7.5; from tissue; host or cells: guinea pig brain membranes
Method: (§1) The source of the H3 receptors in this experiment was guinea pig brain. Alternatively, the source of H3 receptors was recombinant human receptor, expressed in HEK-293 (human embryonic kidney) cells.
The animals weighed 400-600 g. The brain tissue was homogenized with a solution of 50 mM Tris, pH 7.5. The final concentration of tissue in the homogenization buffer was 10% w/v. The homogenates were centrifuged at 1,000×g for 10 min. in order to remove clumps of tissue and debris. The resulting supernatants were then centrifuged at 50,000×g for 20 min. in order to sediment the membranes, which were next washed three times in homogenization buffer (50,000×g for 20 min. each). The membranes were frozen and stored at −70° C. until needed.
All compounds to be tested were dissolved in DMSO and then diluted into the binding buffer (50 mM Tris, pH 7.5) such that the final concentration was 2 μg/ml with 0.1% DMSO. Membranes were then added (400 μg of protein, 5 μg in the case of recombinant human receptor) to the reaction tubes. The reaction was started by the addition of 3 nM [^3H]R-α-methyl histamine (8.8 Ci/mmol) or 3 nM [^3H]N^α-methyl histamine (80 Ci/mmol) and continued under incubation at 30° C. for 30 min. Bound ligand was separated from unbound ligand by filtration, and the amount of radioactive ligand bound to the membranes was quantitated by liquid scintillation spectrometry. […]

[2] = molecular target: T2, recombinant human H3 receptor (Homo sapiens, UniProt Q9Y5N1); assay: H3-receptor binding assay, recombinant human receptor expressed in HEK-293 cells; details: [3H]R-α-methyl histamine or [3H]Nα-methyl histamine
T2 construct: expressed in transfected cells; host or cells: HEK-293 (human embryonic kidney) cells
Method: as §1
All compounds to be tested were dissolved in DMSO and then diluted into the binding buffer (50 mM Tris, pH 7.5) such that the final concentration was 2 μg/ml with 0.1% DMSO. Membranes were then added (400 μg of protein, 5 μg in the case of recombinant human receptor) to the reaction tubes. The reaction was started by the addition of 3 nM [^3H]R-α-methyl histamine (8.8 Ci/mmol) or 3 nM [^3H]N^α-methyl histamine (80 Ci/mmol) and continued under incubation at 30° C. for 30 min. Bound ligand was separated from unbound ligand by filtration, and the amount of radioactive ligand bound to the membranes was quantitated by liquid scintillation spectrometry. All incubations were performed in duplicate and the standard error was always less than 10%. Compounds that inhibited more than 70% of the specific binding of radioactive ligand to the receptor were serially diluted to determine a Ki (nM).

[3] = Effects on diet-induced obesity in mice (weight gain and food intake); type: in vivo; details: mice on high-fat diet, 10 mg/kg by gavage once daily for four days, vs vehicle control
Method: Lean mice (male, approx. 5 weeks of age, purchased from The Jackson Laboratory, Bar Harbor, Me.) were maintained in individual cages at 22° C. on a 12:12 hr light/dark cycle. The “treated” mice (N=12) were administered a Thiazole Derivative (10 mg/kg) by gavage once daily for four consecutive days. Control mice (N=12) were administered vehicle only, once daily for four days. Both control and treated mice were fed a high-fat diet from days 0 to 4 and body weight and food intake were monitored daily. The percent inhibition for weight gain and food intake was calculated by comparing the increase in weight gain and food intake in the treated mice to the increase in weight gain and food intake in the control mice.
Compound numbers correspond to the compound numbering set forth in the specification.

T2 sequence (Q9Y5N1 whole entry): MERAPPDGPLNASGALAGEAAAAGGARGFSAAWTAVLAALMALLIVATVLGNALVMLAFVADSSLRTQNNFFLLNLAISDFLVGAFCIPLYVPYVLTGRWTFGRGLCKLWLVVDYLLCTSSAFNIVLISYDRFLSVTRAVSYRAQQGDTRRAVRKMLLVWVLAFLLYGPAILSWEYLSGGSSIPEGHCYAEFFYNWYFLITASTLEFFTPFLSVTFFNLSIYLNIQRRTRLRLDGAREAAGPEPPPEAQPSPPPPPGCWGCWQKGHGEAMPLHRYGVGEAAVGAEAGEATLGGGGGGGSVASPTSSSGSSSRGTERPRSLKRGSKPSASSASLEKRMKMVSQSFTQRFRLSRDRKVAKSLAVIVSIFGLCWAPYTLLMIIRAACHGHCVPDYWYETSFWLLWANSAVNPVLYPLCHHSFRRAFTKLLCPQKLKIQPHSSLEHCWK
T1 sequence (Q9JI35 whole entry): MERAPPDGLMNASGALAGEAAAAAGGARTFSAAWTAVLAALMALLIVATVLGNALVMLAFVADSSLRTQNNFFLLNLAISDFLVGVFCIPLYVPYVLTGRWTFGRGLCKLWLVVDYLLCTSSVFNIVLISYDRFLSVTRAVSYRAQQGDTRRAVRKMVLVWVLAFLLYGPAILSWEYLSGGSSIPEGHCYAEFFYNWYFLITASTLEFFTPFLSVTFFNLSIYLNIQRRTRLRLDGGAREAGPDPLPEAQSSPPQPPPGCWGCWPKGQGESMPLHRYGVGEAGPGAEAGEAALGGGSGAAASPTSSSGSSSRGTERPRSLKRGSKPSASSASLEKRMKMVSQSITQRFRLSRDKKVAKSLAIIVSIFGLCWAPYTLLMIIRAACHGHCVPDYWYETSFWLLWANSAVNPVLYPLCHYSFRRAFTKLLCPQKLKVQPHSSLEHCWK

SMILES	Ki [1] [nM]	Ki [2] [nM]	Food intake Inhibition (%) [3] [%]	Weight Gain Inhibition (%) [3] [%]
Cc1cccc(C)c1NC(=O)N1CCN(C(=O)c2ccc(Nc3ccncc3)cc2)CC1 [Compound 54A]	2			
O=C(c1ccc(Nc2ccncc2)cc1)N1CCC(n2c(-c3ccccn3)nc3cccnc32)CC1 [Compound 59A]		3	1.1	21.0
Nc1cc(Nc2ccc(C(=O)N3CCC(n4c(-c5ccccn5)nc5cccnc54)CC3)cc2)ccn1 [Compound 160A]			18.3	33.0

Source: US7879880B2, “Substituted aniline derivatives useful as histamine H3 antagonists” (Schering Corporation, priority 2005, dated 2011)
